Structures can show the parent of a compound that is named as a salt.
Columns and labels:
[1] = biological target: T1, human Endothelial Differentiation G-protein Coupled Receptor 3 (EDG3), S1P3 receptor (Homo sapiens, UniProt Q99500); test: S1P3 Assay (GeneBLAzer EDG3-Ga15-NFAT-bla HEK 293T beta-lactamase reporter, agonist dose response); assay type: cell-based; details: EDG3-Ga15-NFAT-bla HEK 293T cells, blue/green emission ratio, 10 point dose response, free base or salt form; read-out: pEC50 (S1P3 assay) (converted)
T1 construct: expressed in transfected cells; host or cells: GeneBLAzer EDG3-Ga15-NFAT-bla HEK 293T
T1 sequence (Q99500 whole entry): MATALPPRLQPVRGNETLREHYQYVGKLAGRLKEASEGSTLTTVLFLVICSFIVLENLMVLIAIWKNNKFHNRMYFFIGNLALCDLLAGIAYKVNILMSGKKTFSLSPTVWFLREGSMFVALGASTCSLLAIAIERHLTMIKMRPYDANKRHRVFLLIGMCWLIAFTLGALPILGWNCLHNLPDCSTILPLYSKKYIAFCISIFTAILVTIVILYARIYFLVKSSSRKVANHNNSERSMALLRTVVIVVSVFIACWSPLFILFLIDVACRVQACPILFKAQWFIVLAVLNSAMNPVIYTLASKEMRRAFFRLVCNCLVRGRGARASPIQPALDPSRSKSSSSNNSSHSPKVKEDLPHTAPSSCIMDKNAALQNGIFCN
Procedure, shortened: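 HEK 293T cells stably expressing human EDG3 with Ga15 and NFAT-beta-lactamase reporter, ~10,000 cells/well, exposed overnight at 37 °C to 10-point compound doses in charcoal-stripped serum medium. CCF4-AM substrate loaded 2 h at room temperature; 460/530 nm ratio normalized to DMSO and agonist controls, sigmoidal fit; intrinsic activity relative to reference agonist maximum (100%).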

[2] = biological target: T2, human Endothelial Differentiation Gene 1 (EDG1), S1P1 receptor (Homo sapiens, UniProt P21453); test: S1P1 Assay (Tango EDG1-bla/U2OS beta-lactamase reporter, agonist dose response); assay type: cell-based; details: EDG1-bla/U2OS cells, blue/green emission ratio, 10 point dose response, free base or salt form; read-out: pEC50 (S1P1 assay) (converted)
T2 construct: TEV protease site; Gal4-VP16 transcription factor; expressed in transfected cells; host or cells: EDG1-bla/U2OS (Tango GPCR-bla U2OS parental cell line)
T2 sequence (P21453 whole entry, the tested form may be a part): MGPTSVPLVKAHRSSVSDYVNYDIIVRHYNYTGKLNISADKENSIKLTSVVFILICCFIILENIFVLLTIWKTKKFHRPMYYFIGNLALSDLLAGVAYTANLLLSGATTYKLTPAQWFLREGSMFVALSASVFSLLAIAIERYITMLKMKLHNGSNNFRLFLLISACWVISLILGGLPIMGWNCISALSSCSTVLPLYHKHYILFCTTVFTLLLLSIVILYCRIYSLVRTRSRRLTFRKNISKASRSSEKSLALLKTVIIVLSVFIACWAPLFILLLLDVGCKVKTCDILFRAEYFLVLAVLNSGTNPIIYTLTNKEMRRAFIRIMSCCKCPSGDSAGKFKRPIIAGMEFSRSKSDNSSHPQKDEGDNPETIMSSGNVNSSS
Procedure, shortened: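 U2OS Tango cells with human EDG1 coupled to TEV site/Gal4-VP16 beta-lactamase reporter, serum-starved 24 h, then exposed overnight at 37 °C to 10-point compound dilutions. CCF4-AM FRET substrate 2 h RT; 460/530 nm ratio normalised to agonist and DMSO controls, sigmoidal fit; intrinsic activity relative to a reference compound set at 100%.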

[3] = clinical studies, Kappos et al 2006; cited from earlier work

EC50 [1] | EC50 [2] | Structure (SMILES) | bradycardia on treatment [3]
0.933 µM | < 1 nM | CCc1c(CCN2CCC(C(=O)O)CC2)cccc1-c1cnc(-c2ccc(OC(C)C)c(C#N)c2)s1 [Example 37, 1-{2-[3-(2-{3-cyano-4-[(1-methylethyl)oxy]phenyl}-1,3-thiazol-5-yl)-2-ethylphenyl]ethyl}-4-piperidinecarboxylic acid trifluoroacetate] | –
> 3.16 µM | < 1 nM | CCc1c(CCN2C[C@H](O)C[C@H]2C(=O)O)cccc1-c1nsc(-c2ccc(OC(C)C)c(Cl)c2)n1 [Example 69] | –
> 3.16 µM | < 1 nM | CCc1c(CCCN2CC(C(=O)O)C2)cccc1-c1cnc(-c2ccc(OC(C)C)c(C#N)c2)s1 [Example 93, 1-{3-[3-(2-{3-cyano-4-[(1-methylethyl)oxy]phenyl}-1,3-thiazol-5-yl)-2-ethylphenyl]propyl}-3-azetidinecarboxylic acid trifluoroacetate] | –
> 3.16 µM | < 1 nM | CCc1c(CCN2CCC[C@H](C(=O)O)C2)cccc1-c1nsc(-c2ccc(CC(C)C)c(C#N)c2)n1 [Example 80] | –
> 3.16 µM | < 1 nM | CCc1c(CCN2CCC(C(=O)O)C2)cccc1-c1nnc(-c2ccc(OC(C)C)c(Cl)c2)s1 (stereo not drawn) [Example 12, 1-{2-[3-(5-{3-chloro-4-[(1-methylethyl)oxy]phenyl}-1,3,4-thiadiazol-2-yl)-2-ethylphenyl]ethyl}-3-pyrrolidinecarboxylic acid trifluoroacetate] | –
> 10 µM | ≤ 10 nM | CCc1c(-c2nsc(-c3ccc(OC(C)C)c(Cl)c3)n2)cccc1C1CCN(CCCC(=O)O)CC1 [Example 102, 4-{4-[3-(5-{3-chloro-4-[(1-methylethyl)oxy]phenyl}-1,2,4-thiadiazol-3-yl)-2-ethylphenyl]-1-piperidinyl}butanoic acid trifluoroacetate] | –
> 3.16 µM | < 1 nM | COc1c(CCN2CC(C(=O)O)C2)cc(F)cc1-c1cnc(-c2ccc(OC(C)C)c(Cl)c2)s1 [Example 33, 1-{2-[3-(2-{3-chloro-4-[(1-methylethyl)oxy]phenyl}-1,3-thiazol-5-yl)-5-fluoro-2-(methyloxy)phenyl]ethyl}-3-azetidinecarboxylic acid trifluoroacetate] | –
> 10 µM | ≤ 10 nM | CCc1c(CCN2CCC[C@H]2C(=O)O)cccc1-c1cnc(-c2ccc(OC(C)C)c(C#N)c2)s1 [Example 88, 1-{2-[3-(2-{3-cyano-4-[(1-methylethyl)oxy]phenyl}-1,3-thiazol-5-yl)-2-ethylphenyl]ethyl}-L-proline trifluoroacetate] | –
> 10 µM | < 100 nM | CCc1c(CC2CCN(CC(=O)O)CC2)cccc1-c1nsc(-c2ccc(OC(C)C)c(Cl)c2)n1 [Example 105, (4-{[3-(5-{3-chloro-4-[(1-methylethyl)oxy]phenyl}-1,2,4-thiadiazol-3-yl)-2-ethylphenyl]methyl}-1-piperidinyl)acetic acid trifluoroacetate] | –
> 3.16 µM | < 1 nM | CCc1c(CN2CC(C(=O)O)C2)cccc1-c1cnc(-c2ccc(CC(C)C)c(C#N)c2)s1 [Example 43, 1-[(3-{2-[3-cyano-4-(2-methylpropyl)phenyl]-1,3-thiazol-5-yl}-2-ethylphenyl)methyl]-3-azetidinecarboxylic acid trifluoroacetate] | –
> 3.16 µM | ≤ 10 nM | CCc1c(CCCN2CCC(C(=O)O)C2)cccc1-c1cnc(-c2ccc(OC(C)C)c(C#N)c2)s1 (stereo not drawn) [Example 94] | –
> 10 µM | < 100 nM | COc1c(CCN2CCC(C(=O)O)CC2)cc(F)cc1-c1nnc(-c2ccc(OC(C)C)c(C(F)(F)F)c2)s1 [Example 13, 1-{2-[5-fluoro-3-{5-[4-[(1-methylethyl)oxy]-3-(trifluoromethyl)phenyl]-1,3,4-thiadiazol-2-yl}-2-(methyloxy)phenyl]ethyl}-4-piperidinecarboxylic acid] | –
> 3.16 µM | < 1 nM | CCc1c(CCN2CCC(C(=O)O)CC2)cccc1-c1nnc(-c2ccc(CC(C)C)c(C#N)c2)s1 [Example 11, 1-[2-(3-{5-[3-cyano-4-(2-methylpropyl)phenyl]-1,3,4-thiadiazol-2-yl}-2-ethylphenyl)ethyl]-4-piperidinecarboxylic acid] | –
> 10 µM | ≤ 10 nM | CCc1c(CN2CC[C@H](C(=O)O)C2)cccc1-c1cnc(-c2ccc(OC(C)C)c(C#N)c2)s1 [Example 84] | –
– | – | CCCCCCCCc1ccc(CCC(N)(CO)CO)cc1 [FTY720] | bradycardia in the first 24 hours of treatment
> 3.16 µM | ≤ 10 nM | CCc1c(CCN2CCC[C@H]2C(=O)O)cccc1-c1nsc(-c2ccc(CC(C)C)c(C#N)c2)n1 [Example 76, 1-[2-(3-{5-[3-cyano-4-(2-methylpropyl)phenyl]-1,2,4-thiadiazol-3-yl}-2-ethylphenyl)ethyl]-L-proline trifluoroacetate] | –
> 10 µM | ≤ 10 nM | COc1c(CCN2CC(C(=O)O)C2)cc(F)cc1-c1nnc(-c2ccc(CC(C)C)c(C#N)c2)s1 [Example 15, 1-{2-[3-{5-[3-cyano-4-(2-methylpropyl)phenyl]-1,3,4-thiadiazol-2-yl}-5-fluoro-2-(methyloxy)phenyl]ethyl}-3-azetidinecarboxylic acid] | –
> 3.16 µM | < 1 nM | CCc1c(CN2CCC(C(=O)O)C2)cccc1-c1nnc(-c2ccc(CC(C)C)c(C#N)c2)s1 (stereo not drawn) [Example 48, 1-[(3-{5-[3-cyano-4-(2-methylpropyl)phenyl]-1,3,4-thiadiazol-2-yl}-2-ethylphenyl)methyl]-3-pyrrolidinecarboxylic acid] | –
> 3.16 µM | < 1 nM | CCc1c(CCN2CC(C(=O)O)C2)cccc1-c1cnc(-c2ccc(OC(C)C)c(C#N)c2)s1 [Example 34, 1-{2-[3-(2-{3-cyano-4-[(1-methylethyl)oxy]phenyl}-1,3-thiazol-5-yl)-2-ethylphenyl]ethyl}-3-azetidinecarboxylic acid trifluoroacetate] | –
> 10 µM | < 1 nM | CCc1c(CN2CC(C(=O)O)C2)cccc1-c1cnc(-c2ccc(OC(C)C)c(C#N)c2)s1 [Example 38, 1-{[3-(2-{3-cyano-4-[(1-methylethyl)oxy]phenyl}-1,3-thiazol-5-yl)-2-ethylphenyl]methyl}-3-azetidinecarboxylic acid trifluoroacetate] | –
> 10 µM | ≤ 10 nM | CCc1c(CCN2C[C@H](O)C[C@H]2C(=O)O)cccc1-c1nnc(-c2ccc(OC(C)C)c(Cl)c2)s1 [Example 55] | –
> 3.16 µM | < 1 nM | CCc1c(CCN2CCC(C(=O)O)C2)cccc1-c1nnc(-c2ccc(CC(C)C)c(C#N)c2)s1 (stereo not drawn) [Example 61] | –
> 3.16 µM | ≤ 10 nM | CCc1c(CCN2CCC(C(=O)O)C2)cccc1-c1nsc(-c2ccc(CC(C)C)c(C#N)c2)n1 (stereo not drawn) [Example 78] | –
